The record followed here is patent publication US6537783B1, “Prefunctionalized nucleotide and process for amplifying a sequence using a prefunctionalized nucleotide” (Bio Merieux, priority 1996, dated 2003).

Experiment [1] deals with Mycobacterium tuberculosis 16S RNA. As to the kind of experiment: Impact of incorporation of prefunctionalized nucleotides on TMA sensitivity (ELOSA, electrophoresis, Northern blotting). Format: biochemical. The conditions noted are these: for sensitivity of the TMA reaction: 10,000 to 10 target copies, ratios 100% to 0%, at a determinable concentration of prefunctionalized nucleotide. The source says: In the abovementioned FIGS. 4 and 5, the number of copies of the target per reaction are given on the x axis and the number of amplicons obtained per microliter of reaction (final reaction volume=100 microliters) are given on the y axis. Specific symbols, for example ▪, □, ▴, ◯, ●, and a percentage, are assigned to the curves in FIGS. 4 and 5. This percentage corresponds to the percentage of the prefunctionalized nucleotide(s) as compared with the natural nucleotides in the TMA amplification reaction. FIGS. 4 and 5 show, respectively, the results of the semiquantification, by means of the ELOSA technique (described in Patent Application PCT WO 92/19812), of the number of amplicons produced from a target range of Mycobacterium tuberculosis 16S RNA in the presence of different ratios of 27a and 27b nucleotides as compared with their respective natural nucleotides.
In order to study the sensitivity of TMA which includes incorporation of prefunctionalized nucleotides, the TMA was performed using decreasing quantities of the target (Mycobacterium tuberculosis 16S RNA, described in Example 22) (10,000, 1000, 100, 10 and 0 copies) in the presence of different ratios between the prefunctionalized nucleotide and its natural analog (100%, 70%, 50%, 30%, 10% and 0%). The same prefunctionalized nucleotides are tested, i.e. 27a (CTP-(N4)-C6O2—NH2) and 27b (CTP-(N4)-C4—NH2).
The reaction products are studied, inter alia, by the method described in Example 22.
The reaction products are also analyzed in a semi-quantitative manner by means of ELOSA (PCT WO 92/19812) and comparison of the intensity of the signals with those of standard ranges.
The reactions which are performed in the presence of (a) prefunctionalized nucleotide(s) are analyzed by electrophoresis and staining, Northern blotting and ELOSA.

Experiment [2] shares this test system. Briefly: Incorporation yield of the nucleotide in the TMA amplification products (HPLC of digested amplicons; fluorescence for fluorescein-UTP). Format: biochemical. Particulars: 10^6 copies target, total 4 mM. The procedure:
The incorporation of the prefunctionalized nucleotides 27a, 27b and 32, and, by way of comparison, Boerhinger's labeled nucleotide ref. 1 427 857, into the products of the TMA amplification reaction is tested using Gen-Probe amplified™ MTD2 (amplified Mycobacterium tuberculosis direct test) kits. This reaction amplifies a 136-base fragment of the mycobacterial 16S RNA. It uses four enzymic activities (DNA-dependent RNA polymerase, DNA-dependent DNA polymerase, RNA-dependent DNA polymerase and ribonuclease H) and two enzymes, T7 RNA polymerase and AMV reverse transcriptase. By means of recurrent reactions involving steps of transcription, reverse transcription and digestion of the RNA contained in the DNA:RNA double strands, which steps resemble an RNA virus replication cycle, this reaction enables a nucleic acid sequence which is recognized by two primers (a simple primer and a primer containing the T7 RNA polymerase promoter) to be amplified specifically. The amplification factor is very substantial ([…]) and the sensitivity is very good (from 1 to 10 copies). 90% of the resulting products consist of single-stranded RNAs and 10% consist of double-stranded DNAs.
Amplification reactions are carried out using 10^6 copies of Mycobacterium tuberculosis 16S RNA. This target RNA is previously obtained and quantified by means of the following method: the 16S RNA gene is cloned into a plasmid under the control of a promoter. The 16S RNA is then obtained by in vitro transcription. This RNA is purified by extraction with phenol/chloroform and filtration through microcon 30™ (Amicon). It is assayed by its absorption at 260 nm.
The standard TMA reactions contain 4 mM of each of the natural rNTPs (ATP, CTP, GTP and UTP). For the purpose of incorporating the prefunctionalized nucleotides into the amplification products, the reaction is performed while including one of these modified nucleotides in the reaction buffer. The reaction is studied in the presence of different ratios between the concentrations of the modified nucleotide and the natural nucleotide, while at the same time ensuring that the total concentration of each nucleotide of the same series, whether modified or natural, is 4 mM. The ratios studied are 0%, 10%, 30%, 50% and 70% (except in the case of the fluorescein-UTP, which it was not possible to test at 70%). A negative control is carried out, with this negative control consisting of a reaction which comprises all the reagents, including the highest ratio of modified nucleotides employed (70 or 50%), apart from the enzymes (which are replaced by the buffer used for redissolving the lyophilized enzymes).
The ratio between the incorporated prefunctionalized nucleotide and the analogous natural nucleotide is determined in order to assess the prefunctionalization of the amplicons obtained in the presence of the prefunctionalized nucleotides 27a (CTP-(N4)-C6O2—NH2) and 27b (CTP-(N4)-C4—NH2) and, by way of comparison, in the presence of the labeled nucleotide fluorescein-12-UTP (Boerhinger, ref. 1 427 857).
The amplification products obtained on carrying out Example 22 are separated from the nucleotides which are in excess in the reaction by means of filtration through Microcon 30™ (from Amicon) and dissolved in 50 μl of water. In the case of the amplification in the presence of fluorescein-12-UTP, the purification is carried out on sephadex G50 (the fluorescein is absorbed on Microcon).
The absorption of the amplification products at 260 nm is then determined (the control without enzyme should have a very low concentration).
In the case of the amplification reactions which include the prefunctionalized nucleotides (and their controls), a step of digesting the nucleic acids down to the nucleoside stage is then carried out:
5 10^14 amplification product copies (approximately 35 μg) are diluted in a final volume of 86 μl of water (in the case of the control without enzyme, a volume is used which is equal to the largest sample […] volume). […]

Setting [3] is: [Prefunctionalized nucl.]/[natural nucl.] in reaction 30%.
Where [4] appears, read: [Prefunctionalized nucl.]/[natural nucl.] in reaction 50%.
Setting [5] is: [Prefunctionalized nucl.]/[natural nucl.] in reaction 70%.
The mark [6] stands for this setting: [Prefunctionalized nucl.]/[natural nucl.] in reaction 10%.

On to CTP-(N4)-C4—NH2 [nucleotide 27b], for which, in experiment [1], the “sensitivity of the TMA reaction” value was “not significantly affected”. For the same substance, the “ability to replace the natural nucleotide in TMA” value in experiment [1] (FIG. 5, ELOSA) is on record as “able to replace the natural nucleotide”. The results for the “incorporation yield: incorporated modified nucleotide / natural nucleotide in TMA amplification products” value in experiment [2] (setting [3]), in experiment [2] (setting [4]) and in experiment [2] (setting [5]) were 1/48, 1/15 and 1/6, respectively.

Turning to fluorescein-12-UTP [reference compound], the “incorporation yield: incorporated modified nucleotide / natural nucleotide in TMA amplification products” value is listed as 1/200 in experiment [2] (setting [6]), 1/45 in experiment [2] (setting [3]) and 1/30 in experiment [2] (setting [4]).

As to CTP-(N4)-C6O2—NH2 [nucleotide 27a], the “sensitivity of the TMA reaction” value in experiment [1] is “not significantly affected”. In addition, the “incorporation yield: incorporated modified nucleotide / natural nucleotide in TMA amplification products” value in experiment [2] (setting [6]) is recorded as 1/33; in experiment [2] (setting [3]), 1/9; in experiment [2] (setting [4]), 1/5; in experiment [2] (setting [5]), 1/3.
